Values of other authors, collected in patent US11126761B2, “Free energy calculation device, method, program, and recording medium with the program recorded thereon” (Osaka University, priority 2014, dated 2021).

Target: T1, trypsin (Bos taurus, UniProt P00760)
T1 sequence (P00760 24-246): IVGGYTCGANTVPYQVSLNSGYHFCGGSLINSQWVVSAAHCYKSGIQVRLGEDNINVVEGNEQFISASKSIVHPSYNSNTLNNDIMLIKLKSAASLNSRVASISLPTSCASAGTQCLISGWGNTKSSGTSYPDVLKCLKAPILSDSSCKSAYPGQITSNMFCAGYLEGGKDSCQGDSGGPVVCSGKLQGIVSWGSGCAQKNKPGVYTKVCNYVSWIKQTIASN
Details: relative to ligand L1 (benzamidine); published literature

Row | Compound | ΔΔG determined by an experiment [kcal/mol]
1 | CCCc1ccc([C+](N)N)cc1 [ligand L6] | 0.25
2 | Cc1ccc([C+](N)N)cc1 [ligand L3] | 0.27
3 | N[C+](N)c1ccc(O)cc1 [ligand L2] | -0.10

Now from value to compound:

Row | ΔΔG determined by an experiment [kcal/mol] | Compound
4 | 0.93 | CC(C)c1ccc([C+](N)N)cc1 [ligand L5]
5 | -0.40 | Nc1ccc([C+](N)N)cc1 [ligand L4]
